Assay results published in paper PMC7203245, “Lacosamide intake during pregnancy increases the incidence of foetal malformations and symptoms associated with schizophrenia in the offspring of mice” (Scientific Reports, 2020).

Columns and labels:
adult male mice [1] = test: Dark-light emergence task; assay type: in vivo; details: 40 mg/kg in utero; 5 minutes
Protocol: (§1) All trials were performed by an experimenter blind to the drug treatment.
Dark-light emergence task. Anxiety-like behaviour was determined in mice using the dark-light emergence test. Testing was carried out in a white open field (50 x 50 cm) containing a small opaque chamber (12 x 12 cm) situated in the centre. The open field was illuminated by a lamp directed at the centre of the field (120 lux focused on the floor). Mice were moved to the testing room 1 hour prior to behavioural testing and they were introduced into the unfamiliar test environment by placing them into the small chamber and recording their behaviour over 5 minutes with a video camera. The total time spent outside the chamber was then quantified by reviewing the video recording.

[2] = LCM concentration in serum of dams by UHPLC-QTOF-MS; assay type: in vivo, mice; details: female, mouse, intraperitoneal, 24 h post-injection, 2 dams in each dose group (10-120 mg/kg), no relationship with dose
Protocol: Maternal weights were assessed at the end of the treatment periods. After 14.5 days of gestation (embryonic day14.5, E14.5), blood was extracted from the orbital sinus of the pregnant dams under anaesthesia (70 mg/kg Thiobarbital: Braun Medical S.A. Spain), as described previously[56] and sacrificed by neck dislocation immediately after. Blood samples were centrifuged immediately, and the serum was collected and stored at -80 °C for further chemical analysis.
(§2) Samples were extracted as described previously[25] with slight modifications. Briefly, embryos were rinsed with cold saline and ultrapure water, and their wet-weight was determined. They were then homogenized using a 150 T Ultrasonic homogenizer (Fisher Scientific, Spain) and 10 µL of an internal standard solution (IS: aqueous D^3-LCM IS, 5 mg mL^−1) was added to the biological samples (embryos or 50 µL of serum). […] The mixture was vortexed vigorously for 3 min and centrifuged at 13,000 g for 5 min. The supernatant was transferred to a new Eppendorf tube and evaporated to dryness in a stream of nitrogen gas. The residue was reconstituted with 50 µL of LC-MS Ultrapure water, vortexed for 20 s and centrifuged at 13,000 g for 5 min. The supernatant was transferred to a conic micro insert to be injected onto the UHPLC system.
MS spectra data were collected between m/z 50 and 1000, and MS/MS spectra were registered between 50-300 Da. […]

adult male mice [3] = test: Y maze working memory test; assay type: in vivo; details: mice from dams exposed to LCM vs control
Protocol: as §1
Y maze. The Y maze used had three equal sized arms (8 x 40 x 20 cm), with white opaque walls at a 120° angle from each other. After introduction to the centre of the maze, the mice was allowed to freely explore the three arms during 5 minutes, recording the number of arm entries and the number of triads in order to calculate the alternation. An entry was considered to occur when all four limbs are within the arm. The success of the triplet was taken into account when mice visited the three arms in three consecutive arm entries showing normal novelty preference and working memory.

adult male mice [4] = test: Predator test; assay type: in vivo
Protocol: as §1
Predator test. The predator test was performed in a rectangular arena (55 x 40 x 40 cm) where a small tube was placed in a corner. The subject mouse was first placed in the area with the empty tube for 5 mins and afterwards, the tube was filled with material from a cage that housed a rat and the mice were allowed to explore the entire fear test box for 10 mins. The time spent by the mice sniffing the tube full of the rat’s material was measured with the aid of the camera fitted to the top of the box.

[5] = LCM and related compounds (RC) in embryos and mothers' serum by high-resolution MS/MSe; assay type: in vivo, mice; details: Maternal Dose 10 mg/kg
Protocol: as §2, with “determined.” for “determined. They were then homogenized using a 150 T Ultrasonic homogenizer (Fisher Scientific, Spain) and 10 µL of an internal standard solution (IS: aqueous D^3-LCM IS, 5 mg mL^−1) was added to the biological samples (embryos or 50 µL of serum).”
MS spectra data were collected between m/z 50 and 1000, and MS/MS spectra were registered between 50-300 Da. […] The MS^e procedure was used to identify metabolites in positive ionization mode. UPLC–QTOF-MS^e detection collects data using two scan functions, providing fragment ion information without precursor ion selection. A characteristic m/z in the low energy function allows identification through the fragment ions obtained with the high collision energy function. Two functions were acquired at different collision energies: a low energy function obtained at 2 eV; and a high-energy function obtained using a collision energy ramp ranging from 15 to 30 eV and spectra data collected between m/z 50 and 800. The data station operating the software was a MassLynx version 4.1, while metabolites were identified by means of Metabolynx XS (Waters, Micromass, Manchester, UK).
In this work the following routes were selected for these searches: phase I metabolites Reduction (+H2), Hydroxylation (O), Hydration (+H2O), 2xHydroxylation (+O2), Deacetylation (-C2H2O) and Demethylation (-CH2); and phase II metabolites Acetylation (+C2H2O) and Glucuronide (+C6H8O6).

adult male mice [6] = test: Motor activity and exploration in the open field; assay type: in vivo; details: high-dose LCM in utero; 3–5 month old mice; 5 minutes
Protocol: as §1
Motor activity in the open field. To evaluate locomotor and exploratory activity, mice were placed in an open field for 5 minutes (38 x 21 x 15 cm: Cybertec S.A., Madrid, Spain). This apparatus consisted of a walled platform containing infrared (IR) emitters and sensors coupled to an actimeter, and the movement sensor was connected to a computer that recorded the number of times the mouse interrupted the IR beams/min. Exploratory activity, was determined through the time the mice interacted with two different objects in a 15 minute session.

Compound: COC[C@@H](NC(C)=O)C(=O)NCc1ccccc1 [LCM, R-2-acetamido-N-benzyl-3-methoxypropionamide]
- time spent in the dark compartment (emergence test) (adult male mice [1]): 217.2 ± 11.19 s
- concentration at 24 h [2]: 5 to 133 ng/mL
- arm alternation in Y-maze (adult male mice [3]; p = 0.04): decrease in alternation
- locomotion in Y-maze (adult male mice [3]; p = 0.087): mild increase in locomotion
- time sniffing the predator's material (adult male mice [4]; 40 mg/kg in utero): 22.85 ± 4.07%
- time sniffing the predator's material (adult male mice [4]; 120 mg/kg in utero): 22.91 ± 2.08%
- Embryos in which the LCM compound is present [5]: Embryo1 and 2
- locomotor activity in open field (adult male mice [6]): enhanced locomotor activity
